# Test results taken from ChEMBL document CHEMBL4613253, “Effective Application of Metabolite Profiling in Drug Design and Discovery” (J Med Chem, 2020).
# Key:
# [1] = molecular target: cGMP-dependent 3',5'-cyclic phosphodiesterase (Homo sapiens, UniProt O00408); experiment: Inhibition of PDE2 (unknown origin)
# [2] = AUC(0 to infinity) in human carrying CYP3A5*3/*3 allele at 300 mg, po measured up to 32 hrs; assay type: ADME, organism-based; set-up: dose 300 mg, route oral, time infinity; conditions: in vivo
# [3] = AUC(0 to infinity) in human carrying CYP3A5*1/*3 allele at 300 mg, po measured up to 32 hrs; assay type: ADME, organism-based; set-up: dose 300 mg, route oral, time infinity; conditions: in vivo
# [4] = AUC(0 to infinity) in human carrying CYP3A5*1/*1 allele at 300 mg, po measured up to 32 hrs; assay type: ADME, organism-based; set-up: dose 300 mg, route oral, time infinity; conditions: in vivo
# [5] = Drug metabolism in human liver microsomes assessed as peak area for GSH-EE-quinone conjugate formation at 10 uM measured after 60 mins in presence of NADPH by LC-MS/MS analysis; assay type: ADME, Microsome; conditions: 1 h
# [6] = Half life in monkey plasma at 1 uM incubated for 0 to 120 mins by LC-MS/MS method; assay type: ADME, cell-free, Macaca mulatta; conditions: rhesus monkey
# [7] = Half life in human plasma at 1 uM incubated for 0 to 120 mins by LC-MS/MS method; assay type: ADME, cell-free
# [8] = Half life in dog plasma at 1 uM incubated for 0 to 120 mins by LC-MS/MS method; assay type: ADME, cell-free, Canis lupus familiaris
# [9] = Half life in human liver microsomes at 1 uM measured up to 60 mins by LC-MS/MS analysis; assay type: ADME, Microsome
# [10] = Plasma clearance in Beagle dog at 1 mg/kg, iv measured up to 24 hrs by LC-MS/MS analysis; assay type: ADME, organism-based, Canis lupus familiaris
# [11] = Half life in rat liver microsomes at 1 uM measured up to 60 mins by LC-MS/MS analysis; assay type: ADME, Microsome
# [12] = Plasma clearance in Wistar-Han rat at 1 mg/kg, iv measured up to 24 hrs by LC-MS/MS analysis; assay type: ADME, organism-based
# [13] = Half life in dog liver microsomes at 1 uM measured up to 60 mins by LC-MS/MS analysis; assay type: ADME, Canis lupus familiaris, Microsome
# [14] = Plasma clearance in po or iv dosed rat plasma; assay type: ADME, organism-based
# [15] = molecular target: T1, Glucose-dependent insulinotropic receptor (Homo sapiens, UniProt Q8TDV5); experiment: Agonist activity at human GPR119 expressed in HEK293 cells preincubated for 30 mins followed by d2 cAMP addition and measured after 60 mins by HTRF assay; assay type: functional, cell-based
# T1 sequence (Q8TDV5 whole entry): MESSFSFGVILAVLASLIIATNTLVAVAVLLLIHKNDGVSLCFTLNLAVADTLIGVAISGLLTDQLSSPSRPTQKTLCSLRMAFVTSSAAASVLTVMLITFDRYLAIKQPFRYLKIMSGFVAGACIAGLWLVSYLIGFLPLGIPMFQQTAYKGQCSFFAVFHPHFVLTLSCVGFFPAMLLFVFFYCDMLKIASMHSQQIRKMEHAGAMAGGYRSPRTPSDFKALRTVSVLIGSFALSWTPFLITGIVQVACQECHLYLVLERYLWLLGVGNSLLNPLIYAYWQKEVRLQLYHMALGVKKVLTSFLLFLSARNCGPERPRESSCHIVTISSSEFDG
# [16] = Half life in rat plasma at 1 uM incubated for 0 to 120 mins by LC-MS/MS method; assay type: ADME, cell-free
# [17] = Oral bioavailability in rat; assay type: ADME, organism-based; conditions: in vivo
# [18] = Elimination half life in po or iv dosed rat; assay type: ADME, organism-based; conditions: in vivo, read-out: beta t1/2 (converted)
# [19] = Volume of distribution at steady state in po or iv dosed rat; assay type: ADME, organism-based; conditions: in vivo, read-out: Vdss
# [20] = Protein binding in po or iv dosed rat plasma assessed as free fraction; assay type: ADME, organism-based
# [21] = Half life in guinea pig plasma at 1 uM incubated for 0 to 120 mins by LC-MS/MS method; assay type: ADME, cell-free, Cavia porcellus
# Chain of cGMP-dependent 3',5'-cyclic phosphodiesterase (O00408 whole entry): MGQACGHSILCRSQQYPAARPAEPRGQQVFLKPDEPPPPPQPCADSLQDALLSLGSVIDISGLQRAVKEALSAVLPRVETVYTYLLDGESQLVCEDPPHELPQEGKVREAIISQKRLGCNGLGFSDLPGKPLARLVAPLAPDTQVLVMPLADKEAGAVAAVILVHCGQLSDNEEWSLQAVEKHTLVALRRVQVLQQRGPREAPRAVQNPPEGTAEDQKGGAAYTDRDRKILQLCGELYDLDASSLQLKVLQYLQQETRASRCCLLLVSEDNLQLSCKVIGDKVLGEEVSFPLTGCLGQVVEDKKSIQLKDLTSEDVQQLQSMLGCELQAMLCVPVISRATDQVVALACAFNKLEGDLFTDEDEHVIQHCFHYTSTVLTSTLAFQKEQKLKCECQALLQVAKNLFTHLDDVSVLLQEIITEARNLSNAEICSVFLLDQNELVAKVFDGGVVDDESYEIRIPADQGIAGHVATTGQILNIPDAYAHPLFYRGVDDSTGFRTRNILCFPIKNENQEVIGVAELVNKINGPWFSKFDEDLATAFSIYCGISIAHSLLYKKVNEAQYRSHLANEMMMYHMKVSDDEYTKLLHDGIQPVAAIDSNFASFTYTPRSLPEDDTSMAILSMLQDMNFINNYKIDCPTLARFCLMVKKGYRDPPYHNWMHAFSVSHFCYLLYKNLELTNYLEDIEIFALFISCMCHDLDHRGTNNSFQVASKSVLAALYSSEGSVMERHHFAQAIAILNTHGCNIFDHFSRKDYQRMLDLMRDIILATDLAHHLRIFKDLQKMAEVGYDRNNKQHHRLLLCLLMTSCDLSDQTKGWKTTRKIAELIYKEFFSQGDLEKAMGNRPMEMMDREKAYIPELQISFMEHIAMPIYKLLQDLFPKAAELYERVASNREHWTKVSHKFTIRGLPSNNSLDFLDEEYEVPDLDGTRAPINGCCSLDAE
structure (smiles),measurement,setting,value
CC(O)c1ccc(-c2c(-c3nn(C)c4ncnc(N5CCC5)c34)cnn2C)cc1 (centres undefined),IC50,[1],42 nM
Cc1nnc(C(C)C)n1[C@@H]1C[C@H]2CC[C@@H](C1)N2CC[C@H](NC(=O)C1CCC(F)(F)CC1)c1ccccc1 [MARAVIROC],AUC(0-inf),[2],2100 ng·h/mL
same,AUC(0-inf),[3],1760 ng·h/mL
same,AUC(0-inf),[4],1240 ng·h/mL
C[C@H](Cc1ccccc1)n1c(-c2ccccc2O)nc2ccnc(C(F)(F)F)c2c1=O,Activity,[5],166810
CC(C)OC(=O)N1CCN(c2ncc(-c3ccc4nccnc4c3)cc2C#N)CC1,half-life at 1 µM,[6],> 370 min
same,half-life at 1 µM,[7],> 370 min
same,half-life at 1 µM,[8],> 370 min
COc1ccc(-c2cc(=O)[nH]c(=S)n2CCO)c(OC)c1,half-life at 1 µM,[9],> 120 min
same,clearance,[10],12 mL/min/kg
same,half-life at 1 µM,[11],8.6 min
same,clearance,[12],73 mL/min/kg
same,half-life at 1 µM,[13],11.2 min
C[C@H](Cc1ccc(F)c(F)c1)n1c(-c2ncccc2O)nc2ccnc(C(F)(F)F)c2c1=O,Activity,[5],3000
Cc1cc(-c2ccc(N3CCC(c4nc(C(C)C)no4)CC3)nc2)c(C#N)cc1C#N,clearance,[14],13.4 mL/min/kg
same,EC50,[15],1.7 nM
same,half-life at 1 µM,[16],> 370 min
same,bioavailability,[17],70%
same,half-life,[18],156 min
same,Vd,[19],3 L/kg
same,fraction unbound,[20],0.03
same,half-life at 1 µM,[7],> 370 min
same,half-life at 1 µM,[21],> 370 min
CCc1ccc(-c2c(-c3nn(C)c4ncnc(N5CC(O)C5)c34)cnn2C)cc1,IC50,[1],10 nM
